The results in this text go back to patent US20100111965A1, “COMBINATION THERAPY” (FUSION ANTIBODIES LIMITED, priority 2006, published 2010).

For one test, the system named is RKO +/+. The test is described as follows: Semi quantitative RT-PCR of AREG RNA in RKO cells after chemotherapy. In kind it is cell-based, human. The conditions noted are these: 48 h after treatment, 7.5 μM. How it is done:
FIG. 1A illustrates analysis of AREG and beta actin RNA expression in RKO +/+ with/without either a 48 hour CPT11 treatment or 5-Fu treatment. RNA levels were analyzed following 35 cycle of PCR to determine relative differences in expression between treated and untreated samples;
(§1) Cells in a log phase of growth were seeded into T75 flask at ˜20% confluence and incubated overnight to allow adherence to the plate. […] Chemotherapy was substituted with saline in control flasks. After different time exposure to chemotherapy the cells were harvested, washed 3 times in PBS and total RNA was isolated using the RNA TAT-60 reagent according to the manufacturer instructions.
(§2) Reverse transcription was performed with 2.5 μg of RNA using a High Capacity cDNA Archive kit (Applied Biosystem) according to the instruction of the manufacturer.
(§3) Semi quantitative RT-PCR was performed using a PTC 225 Gradient Cycler (MJ Research Incorporated. The PCR mixture, in a final volume of 25 μL, contains 12.5 μL of 2× Biomix (Bioline, UK), 2 μL of primers (10 μmol/L), 1 μL of cDNA and 9.5 μL of dH2O). PCR conditions were initial denaturation step of 95 C for 10 minutes, followed by 35 cycles of 95° C. for 30 sec for denaturation; as annealing step 55° C. for 30 sec; and extension at 72° C. for 90 sec, with a final extension of 72° C. for 10 minutes. […]

The test system of test [1] is HCT116+/+ cells (In Vivo). The test can be described thus: Microarray analysis of EGF-family mRNA in HCT116 xenograft tumours after chemotherapy. Set-up: species or system human. As to conditions: for EGF (Epidermal Growth factor) fold change, microarray: drug treated against untreated control. How it is done:
6-8 week old female SCID mice were implanted with 2×10^6 HCT116+/+ human colorectal adenocarcinoma cells into each flank. HCT116 cells in a log phase of growth were harvested, washed in PBS and resuspended in HBSS. They were mixed with equal volumes of matrigel to give a final concentration of 5×10^6 cells/ml. Mice were randomly separated into treatment groups on day 5 after implantation and treated with different doses of chemotherapy. […] All drugs were administered through a bolus injection. Animals were sacrificed at various time points and tumours were removed for analysis
Approximately 10 μg total RNA was isolated from tumour cells and was used as the starting material for preparation of probes. The microarray analysis was carried using an Affymetrix U133 plus 2.0 GeneChip®. Probes were prepared as per the manufacturers recommendations.
After RNA extraction, samples were reverse transcribed into cDNA which was then purified on a column prior to labelling. The probes were then amplified and labelled using Oligo(dT)-primed in vitro transcription generating high-yield, biotinylated targets from the 3′-end. […] For the next stage the fragmented cRNA was hybridised to the array for 16 hours at 45° C. Following this the array was washed and stained with streptavidin-phycoerythrin (SAPE) using a fluidics station and scanned using a GeneChip® Scanner 3000. Stained images were then analysed.
Initially the data was scaled using the Affymetrix® GCOS (Genechip® Operating System) software, to assess quality metrics. The data was then normalized against a control sample. After normalisation the data was filtered removing all genes where the noise level obscured signal and were fold change was […] 2-fold. Finally a confidence filter where the t-test p-value were used to filter the genes to derive lists of statistically robust data.
Each treatment type and timepoint was carried out in triplicate and statistics and filtering were applied to the whole data set from each condition.
A xenograft study was set up to examine the genetic response to 2 different chemotherapeutic drugs 24 and 48 hours after treatment. Each mouse was implanted with equal volumes of HCT116 cells and each condition was performed in triplicate.
RNA isolated from tumours in each of the 12 mice was subjected to microarray analysis to measure mRNA expression levels. Fold change values for drug treated against untreated control is presented.

The test system of the next test is H460 lung cancer cells. The test can be described thus: RT-PCR of AREG RNA in H460 lung cancer cells after chemotherapy. In kind it is cell-based. The conditions noted are these: 48 hour treatment. As for the experimental part: FIG. 5 illustrates analysis of AREG and beta actin RNA expression in H460 lung cancer cells with/without either a 48 hour CPT11 treatment or 5-Fu treatment. RNA levels were analyzed following 35 cycle of PCR to determine relative differences in expression between treated and untreated samples.
as §1, §2, §3

Test [2] relates to MDA-MB231 breast carcinoma cell line. The test can be described thus: RT-PCR of AREG mRNA in MDA-MB231 cells after chemotherapy. In kind it is cell-based, human. As to conditions: IC50 dose, 48 hours. As for the experimental part:
(§4) FIG. 6 illustrates AREG upregulation following chemotherapeutic challenge in A) HT29, B) HCT116 and C) MDA-MB231 cells. Cells were treated with/without chemotherapy for 48 hours. RT-PCR was performed with 1 μg of total RNA using primer pairs specific for the human AREG gene or GAPDH. The PCR products were separated on 1.5% agarose gel electrophoresis and visualized by ethidium bromide staining.
For Example 2, Total RNA was isolated from cells following the RNA STAT-60 manufacturer's protocol (Biogenesis, Poole, U.K.). RT-PCR was performed with 1 μg of total cell RNA using a Promega ImProm-II™ Reverse Transcription System (Promega, Southhampton, UK). PCR was performed using primer pairs specific for human AREG (Forward 5′-[…]-3′(SEQ ID No:19), Reverse 5′-[…]-3′ (SEQ ID No:20)), human HB-EGF (Forward 5′-[…]-3′(SEQ ID No:21), Reverse 5′-[…]-3′(SEQ ID No:22)), human GAPDH as a control (Forward 5′[…]-3′(SEQ ID No:23), Reverse 5′ […]-3′(SEQ ID NO:24)) and human Beta-actin as a control (Forward 5′-[…]-3′(SEQ ID No:25), Reverse 5′-[…]-3′(SEQ ID No:26)).
The PCR products were separated on 1.5% agarose gel and visualized by ethidium bromide staining.

Another test deals with HCT116. The test is described as follows: RT-PCR of AREG RNA in HCT116 cells after chemotherapy. As to conditions: 48 h after treatment, 7.5 μM. In kind it is cell-based, human. How it is done: FIG. 1B illustrates analysis of AREG and beta actin RNA expression in HCT116 +/+ with/without a 48 hour CPT11 treatment. RNA levels were analyzed following 35 cycles of PCR to determine relative differences in expression between treated and untreated samples;
as §4
Cells in a log phase of growth were seeded into T75 flask at ˜20% confluence and incubated overnight to allow adherence to the plate. […] Chemotherapy was substituted with saline in control flasks. After different time exposure to chemotherapy the cells were harvested, washed 3 times in PBS and total RNA was isolated using the RNA TAT-60 reagent according to the manufacturer instructions. […]
Semi quantitative RT-PCR was performed using a PTC 225 Gradient Cycler (MJ Research Incorporated. The PCR mixture, in a final volume of 25 μL, contains 12.5 μL of 2× Biomix (Bioline, UK), 2 μL of primers (10 μmol/L), 1 μL of cDNA and 9.5 μL of dH2O). […]

Where [3] appears, read: HCT116+/+ xenograft, 70 mg/kg bolus, 24 h, vs untreated control.
Where [4] appears, read: HCT116+/+ xenograft, 70 mg/kg bolus, 24 h, vs untreated control, 70 mg/kg.
Setting [5] is: HCT116 xenograft, treated by 5-FU, time not stated.

SMILES strings stand for the structures. Several values for one entry are separate records, joined by “and”; a condition that tells them apart may be missing. Equal values may be shown once.

As to `O=c1[nH]cc(F)c(=O)[nH]1` [5-FU, 5-Fluorouracil], the “AREG RNA expression (RT-PCR)” value in the test on RKO +/+ was “upregulation”. Besides, in test [1] (HCT116+/+ xenograft, 70 mg/kg bolus, 24 h), the “EGF (Epidermal Growth factor) fold change, microarray” value is −2.4 fold. In addition, in test [1] (setting [3]), the “NRG3 fold change, microarray” value is reported as −2.1 fold and the “NRG4 fold change, microarray” value is −1.1 fold. Moreover, in test [1] (setting [4]), the “HB-EGF (Heparin-Binding EGF-like growth factor) fold change, microarray” value is 1.6 fold and 3.1 fold; the “TGF alpha (Transforming Growth factor alpha) fold change, microarray” value was 1.3 fold and 1.8 fold. Also, the “EGF (Epidermal Growth factor) fold change, microarray” value in test [1] (HCT116+/+ xenograft, 70 mg/kg bolus, 48 h) was −3.8 fold. Further, the “NRG4 fold change, microarray” value in test [1] (HCT116+/+ xenograft, 70 mg/kg bolus, 48 h, vs untreated control) is recorded as −1.8 fold. For the same compound, the “fold change values for AREG mRNA expression, treated against untreated controls” value in test [1] (HCT116 xenograft, 70 mg/kg, after 48 hours) was 2.1 fold. In test [1] (setting [5]), the “HB-EGF regulation in micro-array analysis” value is listed as “up-regulation” and the “TGF regulation in micro-array analysis” value was “up-regulation”. Moreover, the “AREG RNA expression (RT-PCR, 35 cycles)” value in the test with H460 lung cancer cells is given as “enhanced expression of AREG”. Further, the “AREG mRNA expression (RT-PCR)” value in test [2] is recorded as “up-regulation”. In addition, in the test with HCT116, the “AREG RNA expression (RT-PCR)” value was “upregulation”.
